A value given as a limit tells only on which side of the number the result lay.

Sequence of human IDO1 (P14902 whole entry): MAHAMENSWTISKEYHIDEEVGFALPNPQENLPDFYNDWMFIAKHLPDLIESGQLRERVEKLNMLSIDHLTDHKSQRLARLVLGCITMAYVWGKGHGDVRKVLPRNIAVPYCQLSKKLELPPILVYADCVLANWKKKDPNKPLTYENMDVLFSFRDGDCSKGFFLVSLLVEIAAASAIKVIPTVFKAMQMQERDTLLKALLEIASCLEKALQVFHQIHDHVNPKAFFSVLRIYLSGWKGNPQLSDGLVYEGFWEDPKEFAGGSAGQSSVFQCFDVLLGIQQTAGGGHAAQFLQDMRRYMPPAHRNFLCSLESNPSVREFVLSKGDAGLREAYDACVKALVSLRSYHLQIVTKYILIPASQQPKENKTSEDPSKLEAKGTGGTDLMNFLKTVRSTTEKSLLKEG

This assay addresses human IDO1 (Homo sapiens, UniProt P14902). Put plainly: Assessment of human IDO-1 inhibitory activity in HEK cells (human IDO1/HEK293 cells, kynurenine read-out with Ehrlich reagent, absorbance 490 nm). The format is cell-based. Also noted: expressed in transfected cells. As to conditions: HEK Human IDO-1 cellular assay. In outline: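 Kynurenine output from stably IDO1-transfected HEK293 cells (10,000/well, phenol red-free RPMI, 10% FBS) after 20 h compound exposure at 37 °C. The reaction was stopped with 0.2% TCA and heated 30 min at 50 °C, then the supernatant was mixed with Ehrlich reagent and read at 490 nm. IC50 was set against DMSO and a 500 nM reference standard as 0 and 100% inhibition.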
On to `Cc1ccc(NC(=O)Nc2cc(C(CC(=O)O)C3CC3)ccc2N(CC(C)C)C2CCOCC2)cc1` (racemic) [Example 1202, (+/−)-3-Cyclopropyl-3-(4-(isobutyl(tetrahydro-2H-pyran-4-yl)amino)-3-(3-(p-tolyl)ureido)phenyl)propanoic acid], for which the IC50 is less than 5 nM.
The same measure for `CC[C@H](CC(=O)O)c1ccc(N2CCC[C@@H]2C(C)(C)O)c(NC(=O)Nc2ccc(C)cc2)c1` (single isomer, unassigned) [Example 774]: more than 50 nM; for `CCOc1ccc(Nc2cc(C(C)CC(=O)O)ccc2N(CC(C)(C)O)C2CCCCC2)c(F)c1` (single isomer, unassigned) [Example 56, 3-(4-(cyclohexyl(2-hydroxy-2-methylpropyl)amino)-3-((4-ethoxy-2-fluorophenyl)amino)phenyl)butanoic acid]: less than 50 nM.
In the case of `CC(C)CN(c1ccc(C(CC(=O)O)C2CC2)cc1NC(=O)Nc1cncnc1)C1CCOCC1` (single isomer, unassigned) [Example 1207 Enantiomer 1, 3-Cyclopropyl-3-(4-(isobutyl(tetrahydro-2H-pyran-4-yl)amino)-3-(3-(pyrimidin-5-yl)ureido)phenyl)propanoic acid] it was more than 50 nM.
In the case of `CCC(CC(=O)O)c1ccc(N2CCC[C@H]2C(C)(C)O)c(NC(=O)Nc2cc(C)on2)c1` (single isomer, unassigned) [Example 815] it was more than 50 nM; in that of `CCc1ccc(Nc2cc(C(CC)CC(=O)O)cc(F)c2N(CC(C)C)CC(C)C)cc1` (single isomer, unassigned) [Example 96, 3-(4-(diisobutylamino)-3-((4-ethylphenyl)amino)-5-fluorophenyl)pentanoic acid], less than 50 nM; in that of `CC(C)CN(c1ccc(C(C)CC(=O)O)cc1NC(=O)Nc1cncnc1)C1CCOCC1` (single isomer, unassigned) [Example 961, 3-(4-(isobutyl(tetrahydro-2H-pyran-4-yl)amino)-3-(3-(pyrimidin-5-yl)ureido)phenyl)butanoic acid], more than 50 nM.
As for `CCC(CC(=O)O)c1ccc(N2CCOC[C@H]2C(C)C)c(NC(=O)Nc2ccc(C)cc2)c1` (single isomer, unassigned) [Example 895], the IC50 is more than 50 nM.
In the case of `CCN(c1ccc(C(C)(C)CC(=O)O)cc1NC(=O)Nc1ccc(C)cc1)C1CCC(C)(O)CC1` (stereo not drawn) [Example 5, 3-(4-(Ethyl(4-hydroxy-4-methylcyclohexyl)amino)-3-(3-(p-tolyl)ureido)phenyl)-3-methylbutanoic acid] it was less than 50 nM.
In the case of `CCOc1ccc(Nc2cc([C@@H](CC)CC(=O)O)ccc2N(CC)C2CCOCC2)cc1` (single isomer, unassigned) [Example 474] it was less than 5 nM; in that of `CCOc1ccc(NC(=O)Nc2cc(C(COC)CC(=O)O)cc(F)c2N(CC(C)C)CC(C)C)cc1` (single isomer, unassigned) [Example 1179, 3-(4-(Diisobutylamino)-3-(3-(4-ethoxyphenyl)ureido)-5-fluorophenyl)-4-methoxybutanoic acid], less than 50 nM; in that of `CC(C)(CC(=O)O)c1ccc(N2CCC[C@H]2C(C)(C)O)c(Nc2ccc(F)cc2)c1` [Example 807, (S)-3-(3-((4-Fluorophenyl)amino)-4-(2-(2-hydroxypropan-2-yl)pyrrolidin-1-yl)phenyl)-3-methylbutanoic acid], more than 50 nM.
The same measure for `CCN(c1ccc([C@H](COC)CC(=O)O)cc1NC(=O)Nc1ccc(OC)cc1F)C1CCOCC1` (single isomer, unassigned) [Example 435]: more than 50 nM; for `CCCN(c1ccc(C(CC)CC(=O)O)cc1NC(=O)Nc1ccc(OC)cc1F)C1CCOCC1` (racemic) [Example 609, 3-(3-(3-(2-Fluoro-4-methoxyphenyl)ureido)-4-(propyl(tetrahydro-2H-pyran-4-yl)amino)phenyl)pentanoic acid]: less than 5 nM; for `CCC(CC(=O)O)c1cc(F)c(N(CC(C)C)CC(C)C)c(NC(=O)Nc2ccc(C)c(F)c2)c1` (single isomer, unassigned) [982-1]: less than 5 nM.
With `CCN(c1ccc([C@@H](COC)CC(=O)NS(C)(=O)=O)cc1Nc1ccc(C#N)cc1)C1CCOCC1` (stereo in doubt) [Example 1077, 3-(3-((4-Cyanophenyl)amino)-4-(ethyl(tetrahydro-2H-pyran-4-yl)amino)phenyl)-4-methoxy-N-(methylsulfonyl)butanamide], the 50% inhibitory concentration (IC50) is less than 50 nM.
The same measure for `COCC(CC(=O)O)c1ccc(N(CC(C)C)C2CCCCC2)c(NC(=O)Cc2ccc(C)cc2)c1` (single isomer, unassigned) [Example 1237, 3-(4-(Cyclohexyl(isobutyl)amino)-3-(2-(p-tolyl)acetamido)phenyl)-4-methoxybutanoic acid]: less than 50 nM; for `CCN(c1ccc(C(CC(=O)O)c2ccccc2)cc1Nc1ccc(Cl)cc1)C1CCOCC1` (single isomer, unassigned) [Example 580, 3-(3-((4-chlorophenyl)amino)-4-(ethyl(tetrahydro-2H-pyran-4-yl)amino)phenyl)-3-phenylpropanoic acid]: less than 5 nM.
The same measure for `CCC(CC(=O)O)c1cc(F)c(N(CC(C)C)CC(C)C)c(NC(=O)Nc2ccc(C#N)c(Cl)c2)c1` (racemic) [Example 978, (+/−)-3-(3-(3-(3-chloro-4-cyanophenyl)ureido)-4-(diisobutylamino)-5-fluorophenyl)pentanoic acid]: less than 50 nM; for `CCC(CC(=O)O)c1ccc(N(CC(C)C)CC(C)C)c(NC(=O)Cc2ccc(C#N)cc2)c1` (single isomer, unassigned) [Example 1104, 3-(3-(2-(4-Cyanophenyl)acetamido)-4-(diisobutylamino)phenyl)pentanoic acid]: less than 5 nM.
The same measure for `CC[C@H](CC(=O)O)c1ccc(N(CC)C2CCOCC2)c(Nc2ccc3nc(C)sc3c2)c1` (single isomer, unassigned) [Example 524]: less than 50 nM.
As for `CCCN(c1ccc([C@@H](CC)CC(=O)O)cc1Nc1ccc(Cl)cc1)C1CCOCC1` (single isomer, unassigned) [Example 541], the IC50 is less than 5 nM.
Turning to `CCC(CC(=O)O)c1ccc(N(CC(C)C)C2CCCCC2)c(Nc2ccc(Cl)cc2F)c1` (single isomer, unassigned) [Example 307, 3-(3-((4-chloro-2-fluorophenyl)amino)-4-(cyclohexyl(isobutyl)amino)phenyl)pentanoic acid], the IC50 was less than 50 nM.
The same measure for `CCC(CC(=O)O)c1ccc(N(CC(C)C)C2CCCCC2)c(NC(=O)Cc2cc(F)ccc2F)c1` (single isomer, unassigned) [Example 1098 E1]: less than 5 nM; for `CCC(CC(=O)O)c1ccc(N2C[C@@H]3C[C@H]2CN3Cc2ccccc2)c(Nc2ccc(C)cc2)c1` (single isomer, unassigned) [Example 666 E1]: less than 5 nM; for `CCC(CC(=O)O)c1ccc(N(CC(C)C)C2CCCCC2)c(Nc2ccc(Cl)c(OCC(F)(F)F)c2)c1` (single isomer, unassigned) [Example 644, 3-(3-((4-chloro-3-(2,2,2-trifluoroethoxy)phenyl)amino)-4-(cyclohexyl (isobutyl)amino)phenyl) pentanoic acid]: less than 50 nM.
With `CCOc1ncc(Nc2cc([C@H](CC)CC(=O)O)ccc2N(CC2CC2)CC(C)(C)O)cn1` (single isomer, unassigned) [Example 274], the IC50 was less than 50 nM.
The same measure for `CCN(c1ccc([C@@H](COC)CC(=O)O)cc1NC(=O)Nc1cc(C)on1)C1CCOCC1` (single isomer, unassigned) [Example 428]: more than 50 nM; for `COCC(CC(=O)O)c1ccc(N(CC(C)C)CC(C)C)c(NC(=O)Nc2cc(C)on2)c1` (racemic) [Example 998, (+/−)-3-(4-(Diisobutylamino)-3-(3-(5-methylisoxazol-3-yl)ureido)phenyl)-4-methoxybutanoic acid]: less than 50 nM.
The same measure for `COCC(CC(=O)O)c1cc(F)c(N(CC(C)C)C2CCCCC2)c(NC(=O)Nc2cc(C)on2)c1` (single isomer, unassigned) [Example 1158, 3-(4-(cyclohexyl(isobutyl)amino)-3-fluoro-5-(3-(5-methylisoxazol-3-yl)ureido)phenyl)-4-methoxybutanoic acid]: less than 50 nM.
Turning to `CC[C@H](CC(=O)O)c1ccc(N(CC)C2CCOCC2)c(Nc2ccc(OCC3CC3)cc2)c1` (single isomer, unassigned) [Example 516], the IC50 was less than 5 nM.
In the case of `CCN(c1ccc(C(CC(=O)O)c2ccccc2)cc1NC(=O)Nc1ccc(C)cc1)C1CCOCC1` (single isomer, unassigned) [Example 584, 3-(4-(Ethyl(tetrahydro-2H-pyran-4-yl)amino)-3-(3-(p-tolyl)ureido)phenyl)-3-phenylpropanoic acid] it was more than 50 nM; in that of `CC[C@@H](CC(=O)O)c1ccc(N(CC)C2CCOCC2)c(Nc2ccc3nncn3c2)c1` (single isomer, unassigned) [Example 471], more than 50 nM; in that of `CCN(c1ccc([C@@H](COC)CC(=O)O)cc1Nc1ccc(C)cc1)C1CCOCC1` (single isomer, unassigned) [Example 373], less than 5 nM.
In the case of `COCC(CC(=O)O)c1ccc(N(CC2CC2)C2CCOCC2)c(Nc2ccc(C#N)cc2)c1` (single isomer, unassigned) [Example 691, 3-(3-((4-cyanophenyl)amino)-4-((cyclopropylmethyl) (tetrahydro-2H-pyran-4-yl)amino)phenyl)-4-methoxybutanoic acid] it was less than 5 nM; in that of `CCC(CC(=O)O)c1ccc(N(CC2CC2)C2CCOCC2)c(Nc2ccc(Cl)cc2)c1` (single isomer, unassigned) [Example 702, 3-(3-((4-chlorophenyl)amino)-4-((cyclopropylmethyl) (tetrahydro-2H-pyran-4-yl)amino)phenyl)pentanoic acid], less than 5 nM.

As usually defined, the IC50 is the concentration at which inhibition is half-maximal.

(Values after patent US9790169B2, “IDO inhibitors” (BRISTOL-MYERS SQUIBB COMPANY, priority 2015, dated 2017).)
